Results: patent publication US7053078B2, “Serine protease inhibitors” (Eli Lilly and Company, priority 2000, dated 2006)

| melting point | Compound |
| --- | --- |
| 253 to 257 °C | COc1ccc(C(=O)N[C@@H](CNC(=O)C2CCN(C3CCCC3)CC2)c2ccccc2)cc1 |
| 239 to 243 °C | COc1ccc(C(=O)N[C@@H](CNC(=O)C2CCN(C3CCCCC3)CC2)c2ccccc2)cc1 |
| 245 to 251 °C | CCN1CCC(C(=O)NC[C@H](NC(=O)c2ccc(OC)cc2)c2ccccc2)CC1 |
| 252 to 259 °C | COc1ccc(C(=O)N[C@@H](CNC(=O)C2CCN(C3CCN(C)CC3)CC2)c2ccccc2)cc1 |
